Reference: PMC6918687, “Pharmacological inhibition of TAK1, with the selective inhibitor takinib, alleviates clinical manifestation of arthritis in CIA mice” (Arthritis Research & Therapy, 2019)
pIC50: −log10 of the molar value.

Assays:
CIA mice = assay: CIA mouse model: joint histopathology scores, day 36; format: in vivo, DBA/1 mice
Excerpt: After 1–2 days in fixative and 4–5 days in 5% formic acid for decalcification, tissues were trimmed and processed for paraffin embedding. Paws were embedded in paraffin in the frontal plane, and the knees were embedded with the patella facing down. Ankles, if left attached to the hind paw, were also embedded in the frontal plane but may be detached and sectioned in the sagittal plane for special purposes. Left/right pairs were typically embedded in the same block. Sections were cut and stained with toluidine blue.
The paw score criteria were as follows: 0 = Normal. 0.5 = Very minimal, affects only 1 joint or minimal multifocal periarticular infiltration of inflammatory cells. 1 = Minimal infiltration of inflammatory cells in synovium and periarticular tissue of affected joints. 2 = Mild infiltration of inflammatory cells. When referring to paws, generally restricted to affected joints (1–3 affected). 3 = Moderate infiltration with moderate edema. When referring to paws, restricted to affected joints, generally 3–4 joints and the wrist or ankle. 4 = Marked infiltration affecting most areas with marked edema, 1 or 2 unaffected joints may be present. 5 = Severe diffuse infiltration with severe edema affecting all joints (to some extent) and periarticular tissues.
The knee score criteria were as follows: 0 = Normal. 0.5 = Very minimal, affects only one area of the synovium or minimal multifocal periarticular infiltration of inflammatory cells. 1 = Minimal infiltration of inflammatory cells in synovium and periarticular tissue of affected synovial areas. 2 = Mild diffuse infiltration of inflammatory cells. 3 = Moderate diffuse infiltration of inflammatory cells. 4 = Marked diffuse infiltration of inflammatory cells. 5 = Severe diffuse infiltration of inflammatory cells.
The cartilage damage score criteria were as follows: 0 = Normal. 0.5 = Very minimal = Affects marginal zones only of one to several areas (knees) or joints (paws). 1 = Minimal = Generally minimal to mild loss of toluidine blue staining (proteoglycan) with no obvious chondrocyte loss or collagen disruption in affected joints/areas. 2 = Mild = Generally mild loss of toluidine blue staining (proteoglycan) with focal areas of chondrocyte loss and/or collagen disruption in some affected joints/areas. Paws may have one or two digit joints with near total to total loss of cartilage. 3 = Moderate = Generally moderate loss of toluidine blue staining (proteoglycan) with multifocal chondrocyte loss and/or collagen disruption in affected joints/areas. Paws may have three or four joints with near total or total loss. In the knee, some matrix remains on any affected surface with areas of severe matrix loss. 4 = Marked = Marked loss of toluidine blue staining (proteoglycan) with multifocal marked (depth to deep zone or tidemark) chondrocyte loss and/or collagen disruption in most joints with a few unaffected or mildly affected. In the knee, one surface with total to near total cartilage loss. 5 = Severe = Severe diffuse loss of toluidine blue staining (proteoglycan) with severe (depth to tide mark) chondrocyte loss and/or collagen disruption in most or all joints.

RA-FLS cells [1] = assay: Phospho-kinase proteome array, TNF-stimulated RA-FLS cells; format: cell-based, human; settings: takinib 10 μM, TNF 30 ng/mL 30 min
Description: Rheumatoid arthritis fibroblast-like synoviocytes (RA-FLS) cells were prepared from surgical synovial samples at the University of Michigan as previously described. Cells were isolated from 4 individual patients (3 female, 1 male) and passaged no more than 2 times before use. Cells were cultured in CRML media, 10% FBS, 1% penicillin-streptomycin (PS), and 1% glutamate.
Briefly, 10^6 cells were plated and either no treatment (naïve) or pretreated with takinib (10 μM) or vehicle (DMSO) for 30 min prior to stimulation with TNF (30 ng/mL) for 30 min at 37 °C in 5% CO2 for phospho-kinase assay (R&D Systems). NF-κB and cytokine assays were performed as previously described; however, cells were incubated for 24 h post-TNF (30 ng/mL) or LPS (10 ng/mL) stimulation.

RA-FLS cells [2] = assay: Cell viability assay (Cell Titer Glo 2.0) in RA-FLS cells; format: cell-based
Description: RA-FLS cells were cultured and treated as previously described. Briefly, cells were plated at 80% confluency ~ 10^4 in 96-well plates and treated with either takinib at various concentrations or takinib + TNF (30 ng/mL) for 24 or 48 h and compared to vehicle-treated samples. Cell death was quantified using Cell Titer Glo 2.0 (Promega) according to the manufacturer’s protocol.

TAK1 = settings: read-out: potency as inhibitor of TAK1; cited from earlier work

CCCn1/c(=N/C(=O)c2cccc(C(N)=O)c2)[nH]c2ccccc21 [takinib]
reduction of disease burden (CIA mice; 50 mg/kg daily (discussion)): ~ 40% | reduction of overall periosteal bone width vs vehicle (CIA mice; 50 mg/kg daily, all joints, p = 0.06): 35% | reduction of overall sum score of knees (CIA mice; 50 mg/kg daily, day 36): ~ 40% | cartilage damage score, all joints (CIA mice; 50 mg/kg daily, day 36, p = 0.013): significantly reduced | inflammation score, all joints (CIA mice; 50 mg/kg daily, day 36, p = 0.019): significantly reduced | reduction of overall joint pathology (all joints summed histological score) vs vehicle (CIA mice; 50 mg/kg daily, day 36, p = 0.02): ~ 30% | average reduction in disease pathology, hind paws and forepaws (CIA mice; 50 mg/kg daily, inflammation, pannus, cartilage damage, bone resorption, periosteal bone formation): 20–30% | histological score of cartilage damage, knees (CIA mice; 50 mg/kg daily, p = 0.0042): significantly reduced | histological score of inflammation, knees (CIA mice; 50 mg/kg daily, p = 0.0044): significantly reduced | reduction of bone resorption histological score, knees (CIA mice; 50 mg/kg daily, trend): ~ 40% | reduction of pannus histological score, knees (CIA mice; 50 mg/kg daily, trend): ~ 40% | overall sum histological score, hind paws (CIA mice; 50 mg/kg daily, vs vehicle, p = 0.0078): reduced | overall sum histological score, forepaws (CIA mice; 50 mg/kg daily, vs vehicle, p = 0.0091): reduced | AMPKα1 phosphorylation, array signal, Mean (RA-FLS cells [1]; n=4): 111.9564 | AMPKα2 phosphorylation, array signal, Mean (RA-FLS cells [1]; n=4): 187.6195 | Akt 1/2/3 (pS473) array signal, Mean (RA-FLS cells [1]; n=4): 39.51 | Akt 1/2/3 (pT308) array signal, Mean (RA-FLS cells [1]; n=4): 122.7503 | CREB phosphorylation, array signal, Mean (RA-FLS cells [1]; n=4): 232.3464 | Chk-2 phosphorylation, array signal, Mean (RA-FLS cells [1]; n=4): 86.85 | EGF R phosphorylation, array signal, Mean (RA-FLS cells [1]; n=4): 60.59 | ERK1/2 phosphorylation, array signal, Mean (RA-FLS cells [1]; n=4): 95.02 | FAK phosphorylation, array signal, Mean (RA-FLS cells [1]; n=4): 142.7814 | Fgr phosphorylation, array signal, Mean (RA-FLS cells [1]; n=4): 41.73 | Fyn phosphorylation, array signal, Mean (RA-FLS cells [1]; n=4): 78.9 | GSK-3α/β phosphorylation, array signal, Mean (RA-FLS cells [1]; n=4): 191.6206 | HSP27 phosphorylation, array signal, Mean (RA-FLS cells [1]; n=4): 202.916 | HSP60 array signal, Mean (RA-FLS cells [1]; n=4): 40.313 | Hck phosphorylation, array signal, Mean (RA-FLS cells [1]; n=4): 119.1771 | JNK 1/2/3 phosphorylation, array signal, Mean (RA-FLS cells [1]; n=4): 100.6526 | Lck phosphorylation, array signal, Mean (RA-FLS cells [1]; n=4): 44.393 | Lyn phosphorylation, array signal, Mean (RA-FLS cells [1]; n=4): 69.34 | MSK1/2 phosphorylation, array signal, Mean (RA-FLS cells [1]; n=4): 239.7188 | PDGF Rβ phosphorylation, array signal, Mean (RA-FLS cells [1]; n=4): 50.4425 | PLC-γ1 phosphorylation, array signal, Mean (RA-FLS cells [1]; n=4): 34.4325 | PRAS40 phosphorylation, array signal, Mean (RA-FLS cells [1]; n=4): 244.5596 | PYK2 phosphorylation, array signal, Mean (RA-FLS cells [1]; n=4): 87.75 | RSK1/2/3 phosphorylation, array signal, Mean (RA-FLS cells [1]; n=4): 168.3928 | STAT2 phosphorylation, array signal, Mean (RA-FLS cells [1]; n=4): 200.5311 | STAT3 (pS727) array signal, Mean (RA-FLS cells [1]; n=4): 95.82 | STAT3 (pY705) array signal, Mean (RA-FLS cells [1]; n=4): 85.93 | STAT5a phosphorylation, array signal, Mean (RA-FLS cells [1]; n=4): 99.7 | STAT5a/b phosphorylation, array signal, Mean (RA-FLS cells [1]; n=4): 146.267 | STAT5b phosphorylation, array signal, Mean (RA-FLS cells [1]; n=4): 154.004 | STAT66 phosphorylation, array signal, Mean (RA-FLS cells [1]; n=4): 147.8809 | Src phosphorylation, array signal, Mean (RA-FLS cells [1]; n=4): 176.3574 | TOR phosphorylation, array signal, Mean (RA-FLS cells [1]; n=4): 129.6068 | WNK1 phosphorylation, array signal, Mean (RA-FLS cells [1]; n=4): 218.9865 | Yes phosphorylation, array signal, Mean (RA-FLS cells [1]; n=4): 124.3601 | c-Jun phosphorylation, array signal, Mean (RA-FLS cells [1]; n=4): 196.6019 | eNOS phosphorylation, array signal, Mean (RA-FLS cells [1]; n=4): 41.6005 | p27 phosphorylation, array signal, Mean (RA-FLS cells [1]; n=4): 40.56 | p38α phosphorylation, array signal, Mean (RA-FLS cells [1]; n=4): 59.41 | p53 (pS15) array signal, Mean (RA-FLS cells [1]; n=4): 47.48 | p53 (pS46) array signal, Mean (RA-FLS cells [1]; n=4): 126.377 | p53 (pS392) array signal, Mean (RA-FLS cells [1]; n=4): 83.6435 | p70 S6 Kinase (T389) array signal, Mean (RA-FLS cells [1]; n=4): 78.65 | p70 S6 Kinase (site not given) array signal, Mean (RA-FLS cells [1]; n=4): 110.3643 | β-Catenin array signal, Mean (RA-FLS cells [1]; n=4): 57.16 | number of human kinases with significantly reduced phosphorylation (RA-FLS cells [1]; 45 phospho-kinase proteins profiled): 21 | cell death vs vehicle control (RA-FLS cells [2]; 10 μM takinib alone, 48 h, p < 0.002): significant amount of cell death | cytotoxicity in the presence of TNF (RA-FLS cells [2]; takinib at varying doses + TNF 30 ng/mL, 24 and 48 h): Minimal cytotoxicity | pIC50 (TAK1): ~8.05
